From PMC11356571, “The Comparative Metabolism of a Novel Hepatocellular Carcinoma Therapeutic Agent, 2,3-Diamino-N-(4-(benzo[d]thiazol-2-yl)phenyl)propanamide, in Human and Animal Hepatocytes” (Metabolites, 2024)

Legend:
Assay type in all cases: in vitro ADME
[1] = Metabolic stability in rat hepatocytes; conditions: cryopreserved hepatocytes
Method: (§1) Cryopreserved hepatocytes were carefully thawed in a 37 °C water bath for approximately 1 min, and transferred to a tube containing pre-warmed thawing medium. The supernatants were removed and the pellets were resuspended in KHB at a final cell density of 1 × 10^6 cells/mL, based on hemocytometer counting using trypan blue exclusion. A ETN101 solution was prepared by dissolving ETN101 in water at 4 mM and diluted by KHB at the concentration of 4 μM of ETN101. Sixty microliters each of hepatocyte suspensions and 4 μM of ETN101 were added in a 96-well plate and incubated for 0, 5, 15, 30, and 45 min at 37 °C in a CO2 incubator. All incubations were conducted in triplicates. Reactions were terminated by the addition of 120 μL of ice-cold acetonitrile and followed by vortex mixing. After centrifugation at 13,000 rpm for 8 min at 4 °C, 5 μL of internal standard (IS, camptothecin in acetonitrile at 780 ng/mL) was added to 60 μL of supernatant. A 2 μL aliquot was injected into the LC-MS/MS system. The reliability of the analysis was confirmed by incorporating three different levels of quality control samples at the beginning and end of each analytical batch. The disappearance rate (k) of ETN101 was calculated by determined peak area ratio of ETN101 to IS over incubation period. Subsequently, half-life (t1/2), intrinsic clearance (Clint), and intrinsic hepatic clearance (Clint,hep) of ETN101 in human and animal hepatocytes were calculated using the following equation [34]: t1/2(min)=ln2/−k(elimination slope) ClintμL/min/10^6 cells=ln2/t1/2×μL incubation/hepatocytes (10^6 cells) Clint,hepmL/min/kg=Clint/1000×A×10^6 cells/g liver×B g liver/kg body weight […]
(§2) For the metabolic stability assay, an LC-MS/MS system was employed, consisting of an Agilent 1260 series HPLC system (Agilent Technologies Inc., Santa Clara, CA, USA) coupled to an API 4000 mass spectrometer (AB SCIEX, Concord, Vaughan, ON, Canada) equipped with a turbo electrospray interface. […] ETN101 and IS were detected using multiple reaction monitoring (MRM) mode under positive electrospray ionization (ESI). […]

[2] = Metabolic stability in dog hepatocytes; conditions: cryopreserved hepatocytes
Method: as §1, §2

[3] = tested on: NAT1 in human liver cytosol; test: Human liver cytosol incubation with NAT1 inhibitor caffeic acid; conditions: 30 min at 37 °C, M1 1 μM
Method: For the chemical inhibition assay, human liver cytosol was prepared in 0.05 M potassium phosphate buffer at a concentration of 1 mg/mL prior to use. A 1 μL of M1 (final concentration: 1 μM) solution was spiked in 223 μL of human liver cytosol preparations. One microliter each of caffeic acid and 1-aminobenzotriazole were added and incubated as NAT1 and NAT2 inhibitors, respectively. The final concentrations of the NAT inhibitors were 0, 100, and 1000 μM in each incubate. After 5 min of pre-warming of the incubates at 37 °C, the metabolic reaction was initiated by adding 25 μL of acetyl-CoA regenerating system to the incubates. The samples were incubated in triplicate for 0 min or 30 min at 37 °C. The reaction was stopped by adding 250 μL of ice-cold acetonitrile containing the IS (camptothecin, 500 ng/mL) and vortex-mixing. Following centrifugation at 13,000 rpm for 5 min at 4 °C, a 2 μL aliquot of the supernatant was injected into the LC-MS/MS system. The percentage of remaining M1 and the formation of M2 were evaluated to determine the involvement of the NAT isozyme in N-acetylation of M1.
For enzyme characterization, an Agilent 6460 triple quadrupole mass spectrometer coupled with a 1260 HPLC system (Agilent Technologies, Santa Clara, CA, USA) and a Kinetex Halo® C18 column (2.7 μm, 2.1 × 50 mm, Advanced Material Technology, Wilmington, DE, USA) were used for chromatographic separation. The mobile phases comprised 0.1% (v/v) formic acid in water (mobile phase A) and 0.1% formic acid (v/v) in acetonitrile (mobile phase B). The mobile phase flowed at a rate of 0.3 mL/min, and the gradient elution program proceeded as follows: starting with 10% B for 0.5 min, a linear increase to 90% B for 0.2 min, maintaining 90% B for 1.5 min, and then returning to initial conditions for 0.2 min. Subsequently, the column was reconditioned using 10% B for 2.6 min. The column and auto-sampler were maintained at 40 °C and 4 °C, respectively. ETN101, M1, and M2 were detected via MRM using ESI in the positive mode. […]

| SMILES | half-life at 2 µM ([1]; 45 min incubation at 37 °C) | hepatocyte CLint at 2 µM ([1]; 45 min incubation at 37 °C) | CLint scaled at 2 µM ([1]; scaled from Clint) | half-life at 2 µM ([2]; 45 min incubation at 37 °C) | hepatocyte CLint at 2 µM ([2]; 45 min incubation at 37 °C) | CLint scaled at 2 µM ([2]; scaled from Clint) | Percentage remaining of M1 ([3]; caffeic acid 0 μM) | Percentage remaining of M1 ([3]; caffeic acid 100 μM) | Percentage remaining of M1 ([3]; caffeic acid 1000 μM) |
| --- | --- | --- | --- | --- | --- | --- | --- | --- | --- |
| NCC(N)C(=O)Nc1ccc(-c2nc3ccccc3s2)cc1 (stereo not drawn) [ETN101, 2,3-diamino-N-(4-(benzo[d]thiazol-2-yl)phenyl)propanamide] | 1.15 h | 20.1 µL/min/1e6 cells | 94.1 mL/min/kg | 1.88 h | 12.3 µL/min/1e6 cells | 84.6 mL/min/kg |  |  |  |
| Nc1ccc(-c2nc3ccccc3s2)cc1 [M1, 2-(4-aminophenyl)benzothiazole] |  |  |  |  |  |  | 87.2% | 89.6% | 94.4% |
